ChEMBL document CHEMBL1629463, “In vitro anti-rotavirus activity of polyphenol compounds isolated from the roots of Glycyrrhiza uralensis” (Bioorg Med Chem, 2010)
Values after ≈ are worked out from the molar mass of the structure shown. Active and inactive are the calls of the source. No cut-off for these calls is given here.

Tests used:
Porcine rotavirus [1] = test: Antiviral activity against KJ56-1 Porcine rotavirus G5P[7] in human RBC assessed as inhibition of virus-induced hemagglutinination after 1 hr; type: functional
Bovine rotavirus [2] = test: Antiviral activity against KJ56-1 Bovine rotavirus G8P[7] in human RBC assessed as inhibition of virus-induced hemagglutinination after 1 hr; type: functional; conditions: Rotavirus A
Porcine rotavirus [3] = test: Antiviral activity against KJ56-1 Porcine rotavirus G5P[7] infected in african green monkey TF-104 cells assessed as inhibition of viral mRNA synthesis at 40 to 50 uM after 18 hrs by RT-PCR analysis; type: functional, cell-based
Bovine rotavirus [4] = test: Antiviral activity against KJ56-1 Bovine rotavirus G8P[7] infected in african green monkey TF-104 cells assessed as inhibition of virus-induced cytopathic effect after 72 hrs; type: functional, cell-based; conditions: Rotavirus A, TF-104, 72 h
Porcine rotavirus [5] = test: Antiviral activity against KJ56-1 Porcine rotavirus G5P[7] infected in african green monkey TF-104 cells after 72 hrs by virucidal assay; type: functional, cell-based; conditions: Rotavirus A, TF-104, 72 h
[6] = Selectivity index, ratio of CC50 for african green monkey TF-104 cells to EC50 for virucidal activity against KJ56-1 Povine rotavirus […]; type: toxicity, cell-based; conditions: read-out: Ratio CC50/EC50
Bovine rotavirus [7] = test: Antiviral activity against KJ56-1 Bovine rotavirus G8P[7] infected in african green monkey TF-104 cells assessed as inhibition of viral replication at 30 uM after 24 hrs by immunofluorescence assay; type: functional, cell-based
Bovine rotavirus [8] = test: Antiviral activity against KJ56-1 Bovine rotavirus G8P[7] infected in african green monkey TF-104 cells after 72 hrs by virucidal assay; type: functional, cell-based; conditions: Rotavirus A, TF-104, 72 h
[9] = Selectivity index, ratio of CC50 for african green monkey TF-104 cells to EC50 for cytopathic inhibition activity against KJ56-1 Bovine rotavirus G8P[7]; type: toxicity, cell-based; conditions: read-out: Ratio CC50/EC50
[10] = Cytotoxicity against african green monkey TF-104 cells after 72 hrs by MTT assay; type: cell-based; conditions: chlorocebus aethiops
Porcine rotavirus [11] = test: Antiviral activity against KJ56-1 Porcine rotavirus G5P[7] infected in african green monkey TF-104 cells assessed as inhibition of viral replication at 30 uM after 24 hrs by immunofluorescence assay; type: functional, cell-based
Bovine rotavirus [12] = test: Antiviral activity against KJ56-1 Bovine rotavirus G8P[7] infected in african green monkey TF-104 cells assessed as inhibition of viral mRNA synthesis at 40 to 50 uM after 18 hrs by RT-PCR analysis; type: functional, cell-based
[13] = Selectivity index, ratio of CC50 for african green monkey TF-104 cells to EC50 for KJ56-1 Bovine rotavirus G8P[7] by virucidal assay; type: toxicity, cell-based; conditions: read-out: Ratio CC50/EC50
[14] = Selectivity index, ratio of CC50 for african green monkey TF-104 cells to EC50 for cytopathic inhibition activity against KJ56-1 Povine rotavirus […]; type: toxicity, cell-based; conditions: read-out: Ratio CC50/EC50
Porcine rotavirus [15] = test: Antiviral activity against KJ56-1 Porcine rotavirus G5P[7] infected in african green monkey TF-104 cells assessed as inhibition of virus-induced cytopathic effect after 72 hrs; type: functional, cell-based; conditions: TF-104, 72 h

## CC(C)=CCc1c(O)cc2oc(-c3ccc(O)cc3)c(O)c(=O)c2c1O [LICOFLAVONOL]
Porcine rotavirus [1]
  MIC: 17.2 µM (≈ 6.09 µg/mL)
Bovine rotavirus [2]
  MIC: 17.2 µM (≈ 6.09 µg/mL)
Porcine rotavirus [3]
  inhibition: Active
Bovine rotavirus [4]
  EC50: 25.9 µM
Porcine rotavirus [5]
  EC50: 36.8 µM
[6]
  selectivity ratio: 2.3
Bovine rotavirus [7]
  inhibition: Active
Bovine rotavirus [8]
  EC50: 15.5 µM
[9]
  selectivity ratio: 3.3
[10]
  CC50 at 72 h: 85.3 µM
Porcine rotavirus [11]
  inhibition: inactive
Bovine rotavirus [12]
  inhibition: Active
[13]
  selectivity ratio: 5.5

## O=c1c(-c2ccc(O)cc2)coc2cc(O)cc(O)c12 [GENISTEIN]
Bovine rotavirus [4]
  EC50: 99.6 µM
[9]
  selectivity ratio: 1.8
[10]
  CC50 at 72 h: 174 µM

## COc1cc(O)ccc1C(=O)/C=C/c1ccc(O)cc1
Porcine rotavirus [1]
  MIC: inactive
Bovine rotavirus [2]
  MIC: 17.2 µM (≈ 4.65 µg/mL)
Porcine rotavirus [3]
  inhibition: Active
Bovine rotavirus [4]
  EC50: 41.8 µM
Porcine rotavirus [5]
  EC50: 69.5 µM
[14]
  selectivity ratio: 5.6
[9]
  selectivity ratio: > 3.2
Porcine rotavirus [15]
  EC50: 24 µM
[10]
  CC50 at 72 h: > 133 µM
Bovine rotavirus [12]
  inhibition: Active

## COc1c(CC=C(C)C)c(O)cc2oc(-c3ccc(O)cc3O)cc12 [LICOCOUMARONE]
Porcine rotavirus [1]
  MIC: 17.2 µM (≈ 5.85 µg/mL)
Bovine rotavirus [2]
  MIC: 17.2 µM (≈ 5.85 µg/mL)
Porcine rotavirus [3]
  inhibition: Active
Bovine rotavirus [4]
  EC50: 22.3 µM
Porcine rotavirus [5]
  EC50: 26.1 µM
[6]
  selectivity ratio: 2.1
[14]
  selectivity ratio: 1.3
Bovine rotavirus [8]
  EC50: 37.8 µM
[9]
  selectivity ratio: 2.5
Porcine rotavirus [15]
  EC50: 43.6 µM
[10]
  CC50 at 72 h: 54.5 µM
Bovine rotavirus [12]
  inhibition: Active
[13]
  selectivity ratio: 1.4

## COc1cc2oc(=O)c(-c3ccc(O)cc3O)cc2c(OC)c1CC=C(C)C [GLYCYRIN]
Porcine rotavirus [1]
  MIC: 17.2 µM (≈ 6.58 µg/mL)
Bovine rotavirus [2]
  MIC: 17.2 µM (≈ 6.58 µg/mL)
Bovine rotavirus [4]
  EC50: > 100 µM
Bovine rotavirus [8]
  EC50: 88.1 µM
[10]
  CC50 at 72 h: > 133 µM
[13]
  selectivity ratio: > 1.5

## COc1c(CC=C(C)C)c(O)cc2c1C[C@H](c1ccc(O)cc1O)CO2 [GLYASPERIN C]
Porcine rotavirus [1]
  MIC: 17.2 µM (≈ 6.13 µg/mL)
Bovine rotavirus [2]
  MIC: 17.2 µM (≈ 6.13 µg/mL)
Porcine rotavirus [3]
  inhibition: Active
Bovine rotavirus [4]
  EC50: 12 µM
Porcine rotavirus [5]
  EC50: 18.7 µM
[6]
  selectivity ratio: 2.3
Bovine rotavirus [7]
  inhibition: Active
[14]
  selectivity ratio: 3.6
Bovine rotavirus [8]
  EC50: 14.7 µM
[9]
  selectivity ratio: 3.6
Porcine rotavirus [15]
  EC50: 12.1 µM
[10]
  CC50 at 72 h: 42.8 µM
Porcine rotavirus [11]
  inhibition: Active
Bovine rotavirus [12]
  inhibition: Active
[13]
  selectivity ratio: 2.9

## COc1cc2c(c(OC)c1CC=C(C)C)C[C@H](c1ccc(O)cc1O)CO2 [GLYASPERIN D]
Porcine rotavirus [1]
  MIC: 17.2 µM (≈ 6.37 µg/mL)
Bovine rotavirus [2]
  MIC: 17.2 µM (≈ 6.37 µg/mL)
Porcine rotavirus [3]
  inhibition: Active
Bovine rotavirus [4]
  EC50: 42 µM
Bovine rotavirus [7]
  inhibition: Active
Bovine rotavirus [8]
  EC50: 17.6 µM
[9]
  selectivity ratio: 1.6
[10]
  CC50 at 72 h: 68.1 µM
Porcine rotavirus [11]
  inhibition: inactive
Bovine rotavirus [12]
  inhibition: Active
[13]
  selectivity ratio: 5.7
